Where a name gives a salt, the structure may show the parent alone. Read-outs that look alike come from different tables or passages of the source.
Experiments:
[1] = target: BIR3 domain of human cIAP-1 (residues 267-363) (Homo sapiens (Human), UniProt Q13490); experiment: cIAP-1 in vitro competitive displacement binding assay (fluorescence polarization; Probe A AVPIK(5&6FAM)-amide or Probe B AbuRPFK(5&6FAM)-amide)
[2] = target: BIR3 domain of human XIAP (residues 252-350) (Homo sapiens (Human), UniProt P98170); experiment: XIAP in vitro competitive displacement binding assay (fluorescence polarization); details: for IC50: read-out: IC50 or PI Xiap: IC50
[3] = read-out: IC50 or PI cIAP1: IC50
[4] = Probe A AVPIK(5&6FAM)-amide, read-out: IC50 or PI cIAP1: IC50
[5] = Probe B AbuRPFK(5&6FAM)-amide, read-out: IC50 or PI cIAP1: IC50
[6] = 1 h, read-out: IC50 or PI Xiap: PI
[7] = 3 h, Probe A, read-out: IC50 or PI cIAP1: PI

| Compound | IC50 [2] | IC50 [1, 4] | other results |
| --- | --- | --- | --- |
| COC[C@H]1CN[C@H](C)CN1CC(=O)N1CC(C)(C)c2cnc(-c3cnn(C)c3)cc21 [Example 124, 1-[3,3-Dimethyl-6-(1-methyl-1H-pyrazol-4-yl)-1H,2H,3H-pyrrolo[3,2-c]pyridin-1-yl]-2-[(2R,5R)-2-(methoxymethyl)-5-methylpiperazin-1-yl]ethan-1-one dihydrochloride] | 4 µM |  | IC50 [1, 3]: 0.55 µM |
| C[C@@H]1CN(CC(=O)N2CCc3cc(Br)c(S(=O)(=O)N(C)C)cc32)CCN1 [Example 26, 5-Bromo-1-[2-((R)-3-methyl-piperazin-1-yl)-acetyl]-2,3-dihydro-1H-indole-6-sulfonic acid dimethylamide hydrochloride salt] | 2.4 µM | 27 µM |  |
| C[C@@H]1CN(CC(=O)N2CCc3cc(F)ccc32)CCN1 [Example 9, 1-(5-Fluoro-2,3-dihydro-indol-1-yl)-2-((R)-3-methyl-piperazin-1-yl)-ethanone] | 130 µM | 170 µM |  |
| C[C@@H]1CN(CC(=O)N2CCc3ccc(S(=O)(=O)N(C)C)cc32)CCN1 [Example 32, 1-[2-((R)-3-Methyl-piperazin-1-yl)-acetyl]-2,3-dihydro-1H-indole-6-sulfonic acid dimethylamide] | 2.6 µM | 57 µM |  |
| C[C@@H]1CN(CC(=O)N2CC(C)(C)c3c(Cl)cccc32)CCN1 [Example 19, 1-(4-Chloro-3,3-dimethyl-2,3-dihydro-indol-1-yl)-2-((R)-3-methyl-piperazin-1-yl)-ethanone] | 150 µM | 17 µM |  |
| COC[C@H]1CN[C@H](C)CN1CC(=O)N1CC(C)(C)c2cc(=O)n(CC(C)C)cc21 [Example 73, 6-Isobutyl-1-[2-((2R,5R)-2-methoxy-methyl-5-methyl-piperazin-1-yl)-acetyl]-3,3-dimethyl-1,2,3,6-tetrahydro-pyrrolo[2,3-c]pyridin-5-one hydrochloride salt] |  |  | inhibition at 1 µM ([1]; 3 h, Probe B, @ 1 μM, read-out: IC50 or PI cIAP1: PI): 60%; inhibition at 3 µM ([2]; 1 h, @ 3 μM, read-out: IC50 or PI Xiap: PI): 46% |
| COC(=O)c1ccc2c(c1)N(C(=O)CN1CCN[C@H](C)C1)CC2 [Example 15, 1-[2-((R)-3-Methyl-piperazin-1-yl)-acetyl]-2,3-dihydro-1H-indole-6-carboxylic acid methyl ester] | 19 µM |  | IC50 [1]: < 10 µM; IC50 [1, 3]: 6.8 µM |
| C[C@@H]1CN(CC(=O)N2CCc3ccccc32)CCN1 [Example 85, 1-(2,3-Dihydro-1H-indol-1-yl)-2-[(3R)-3-methylpiperazin-1-yl]ethan-1-one, hydrochloride salt] |  |  | inhibition at 250 µM [1, 7]: 45%; inhibition at 500 µM ([2]; 1 h, @ 500 μM, read-out: IC50 or PI Xiap: PI): 52% |
| CC(C)S(=O)(=O)c1cc2c(cc1F)C(C)(C)CN2C(=O)CN1CCN[C@H](C)C1 [Example 52, 1-[5-Fluoro-3,3-dimethyl-6-(propane-2-sulfonyl)-2,3-dihydro-indol-1-yl]-2-((R)-3-methyl-piperazin-1-yl)-ethanone diydrochloride salt] | 0.95 µM |  | IC50 [1, 5]: 2.5 µM |
| C[C@@H]1CN(CC(=O)N2CCc3cnc(-c4cc(Cl)ccc4F)cc32)CCN1 [Example 38, 1-[6-(5-Chloro-2-fluoro-phenyl)-2,3-dihydro-pyrrolo[3,2-c]pyridin-1-yl]-2-((R)-3-methyl-piperazin-1-yl)-ethanone hydrochloride salt] | 5.5 µM | 2.1 µM | IC50 [1]: < 10 µM |
| CC(=O)N1CCC2(CC1)CN(C(=O)CN1CCN[C@H](C)C1)c1cc(Cl)ccc12 [Example 31, 1-{1′-Acetyl-6-chloro-1,2-dihydrospiro[indole-3,4′-piperidine]-1-yl}-2-[(3R)-3-methylpiperazin-1-yl]ethan-1-one hydrochloride salt] |  |  | inhibition at 49 µM ([1]; 3 h, Probe A, @ 49 μM, read-out: IC50 or PI cIAP1: PI): 62%; inhibition at 49 µM ([2]; 1 h, @ 49 μM, read-out: IC50 or PI Xiap: PI): 51% |
| CNS(=O)(=O)c1ccc2c(c1)N(C(=O)CN1CCN[C@H](C)C1)CC2 [Example 27, 1-[2-((R)-3-Methyl-piperazin-1-yl)-acetyl]-2,3-dihydro-1H-indole-6-sulfonic acid methylamide] | 2.5 µM | 59 µM |  |
| CNC(=O)c1ccc2c(c1)N(C(=O)CN1CCN[C@H](C)C1)CC2 [Example 16, 1-[2-((R)-3-Methyl-piperazin-1-yl)-acetyl]-2,3-dihydro-1H-indole-6-carboxylic acid methylamide] |  |  | inhibition at 250 µM [1, 7]: 56%; inhibition at 77 µM ([2]; 1 h, @ 77 μM, read-out: IC50 or PI Xiap: PI): 42% |
| C[C@@H]1CN(CC(=O)N2CCc3cnccc32)CCN1 [Example 14, 1-(2,3-Dihydro-pyrrolo[3,2-c]pyridin-1-yl)-2-((R)-3-methyl-piperazin-1-yl)-ethanone] |  |  | inhibition at 160 µM [1, 7]: 46%; inhibition at 99 µM ([2]; 1 h, @ 99 μM, read-out: IC50 or PI Xiap: PI): 53% |
| COc1ccc2c(c1)N(C(=O)CN1CCN[C@H](C)C1)CC2 [Example 5, 1-(6-Methoxy-2,3-dihydro-indol-1-yl)-2-((R)-3-methyl-piperazin-1-yl)-ethanone] |  | 78 µM | inhibition at 160 µM [2, 6]: 49% |
| C[C@@H]1CN(CC(=O)N2CCc3ccc(N)cc32)CCN1 [Example 7, 1-(6-Amino-2,3-dihydro-indol-1-yl)-2-((R)-3-methyl-piperazin-1-yl)-ethanone] |  |  | inhibition at 5000 µM ([1]; 3 h, Probe A, @ 5000 μM, read-out: IC50 or PI cIAP1: PI): -30%; inhibition at 1600 µM ([2]; 1 h, @ 1600 μM, read-out: IC50 or PI Xiap: PI): 43% |
| C[C@@H]1CN(CC(=O)N2CCc3ccc(N(C)c4ccccc4)cc32)CCN1 [Example 2, 1-[6-(Methyl-phenyl-amino)-2,3-dihydro-indol-1-yl]-2-((R)-3-methyl-piperazin-1-yl)-ethanone Trifluoroacetate salt] | 41 µM |  | IC50 [1, 3]: 79 µM |
| C[C@@H]1CN(CC(=O)N2CCc3ccc(OC(F)(F)F)cc32)CCN1 [Example 28, 2-((R)-3-Methyl-piperazin-1-yl)-1-(6-trifluoromethoxy-2,3-dihydro-indol-1-yl)-ethanone hydrochloride salt] | 17 µM | 42 µM |  |
| C[C@@H]1CN(CC(=O)N2CC(C)(C)c3ncc(C(=O)c4ccccc4)cc32)[C@@H](CN2CCCC2=O)CN1 [Example 187, 1-{[(2R,5R)-1-(2-{6-Benzoyl-3,3-dimethyl-1H,2H,3H-pyrrolo[3,2-b]pyridin-1-yl}-2-oxoethyl)-5-methylpiperazin-2-yl]methyl}pyrrolidin-2-one dihydrochloride] | 0.11 µM |  | IC50 [1, 3]: 0.032 µM |
| CNS(=O)(=O)c1cc2c(cc1Br)CCN2C(=O)CN1CCN[C@H](C)C1 [Example 25, 5-Bromo-1-[2-((R)-3-methyl-piperazin-1-yl)-acetyl]-2,3-dihydro-1H-indole-6-sulfonic acid methylamide hydrochloride salt] | 1.6 µM | 60 µM | IC50 [1, 5]: 61 µM |
| C[C@@H]1CN(CC(=O)N2CC(C)(C)c3c(Cl)cc(Cl)cc32)CCN1 [Example 46, 1-(4,6-Dichloro-3,3-dimethyl-2,3-dihydro-indol-1-yl)-2-((R)-3-methyl-piperazin-1-yl)-ethanone hydrochloride salt] | 9 µM |  | IC50 [1, 5]: 4.8 µM |

Further lines, with some results ahead:

| IC50 [2] | IC50 [1, 4] | Compound | other results |
| --- | --- | --- | --- |
| 0.79 µM |  | COC[C@H]1CN[C@H](C)CN1CC(=O)N1CC(C)(C)c2ccc(C#N)cc21 [Example 117, 1-{2-[(2R,5R)-2-(Methoxymethyl)-5-methylpiperazin-1-yl]acetyl}-3,3-dimethyl-2,3-dihydro-1H-indole-6-carbonitrile hydrochloride] | IC50 [1, 5]: 0.71 µM |
| 1.3 µM |  | COC[C@H]1CN[C@H](C)CN1CC(=O)N1CC(C)(C(=O)OC)c2ccc(Br)cc21 (stereo partly drawn) [Example 129, Methyl 6-bromo-1-{2-[(2R,5R)-2-(methoxymethyl)-5-methylpiperazin-1-yl]acetyl}-3-methyl-2,3-dihydro-1H-indole-3-carboxylate hydrochloride] | IC50 [1, 5]: 0.48 µM |
|  | 27 µM | C[C@@H]1CN(CC(=O)N2CC(C)(C)c3ccccc32)CCN1 [Example 21, 1-(3,3-Dimethyl-2,3-dihydro-indol-1-yl)-2-((R)-3-methyl-piperazin-1-yl)-ethanone] | inhibition at 160 µM [2, 6]: 45% |
| 29 µM |  | COC[C@H]1CN[C@H](C)CN1CC(=O)N1CC(C)(C)c2ccc(CN3CCCC3=O)cc21 [Example 125, 1-[(1-{2-[(2R,5R)-2-(Methoxymethyl)-5-methylpiperazin-1-yl]acetyl}-3,3-dimethyl-2,3-dihydro-1H-indol-6-yl)methyl]pyrrolidin-2-one hydrochloride] | IC50 [1, 5]: 0.73 µM |
| 110 µM |  | C[C@@H]1CN(CC(=O)N2CCc3ccc(C(=O)N(C)C)cc32)CCN1 [Example 17, 1-[2-((R)-3-Methyl-piperazin-1-yl)-acetyl]-2,3-dihydro-1H-indole-6-carboxylic acid dimethylamide] | inhibition at 160 µM [1, 7]: 44% |
| 0.13 µM |  | C[C@@H]1CN(CC(=O)N2C[C@@](C)(c3ccccc3)c3ccc(C#N)cc32)[C@@H](Cn2cccn2)CN1 [Example 154, (3S)-3-Methyl-1-{2-[(2R,5R)-5-methyl-2-(1H-pyrazol-1-ylmethyl)piperazin-1-yl]acetyl}-3-phenyl-2,3-dihydro-1H-indole-6-carbonitrile] | IC50 [1, 5]: 0.17 µM |
| 4 µM |  | COC[C@H]1CN[C@H](C)CN1CC(=O)N1C[C@](C)(COC)c2ccc(Br)cc21 [Example 168, 1-[(3R)-6-Bromo-3-(methoxymethyl)-3-methyl-2,3-dihydro-1H-indol-1-yl]-2-[(2R,5R)-2-(methoxymethyl)-5-methylpiperazin-1-yl]ethan-1-one hydrochloride] | IC50 [1, 5]: 0.89 µM |

— US9018214B2, “Bicyclic heterocycle compounds and their uses in therapy” (Astex Therapeutics Limited, priority 2011, dated 2015)
